Data reported in PubChem BioAssay (NCI).
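Compound exposure: 48 hours, 5 concentrations, 96-well plates. TGI marks complete inhibition of growth.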

Assays:
Test in all cases: inhibition of tumour cell growth, NCI panel, 48 h
HCT-116 colon = system: HCT-116 colon
SK-OV-3 ovarian = system: SK-OV-3 ovarian
UACC-62 melanoma = system: UACC-62 melanoma
HCT-15 colon = system: HCT-15 colon
OVCAR-5 ovarian = system: OVCAR-5 ovarian
HOP-62 NSCLC = system: HOP-62 NSCLC
NCI-H460 lung = system: NCI-H460 lung
A549 NSCLC = system: A549 NSCLC
SNB-75 CNS = system: SNB-75 CNS
COLO 205 colon = system: COLO 205 colon
UO-31 renal = system: UO-31 renal
HCC-2998 colon = system: HCC-2998 colon
UACC-257 melanoma = system: UACC-257 melanoma
HT29 colon = system: HT29 colon
T-47D breast = system: T-47D breast
RXF 393 renal = system: RXF 393 renal
MCF7 breast = system: MCF7 breast
CAKI-1 renal = system: CAKI-1 renal
MALME-3M melanoma = system: MALME-3M melanoma

Row | SMILES | TGI (HCT-116 colon) [µM] | TGI (SK-OV-3 ovarian) [µM] | TGI (UACC-62 melanoma) [µM] | TGI (HCT-15 colon) [µM] | TGI (OVCAR-5 ovarian) [µM] | TGI (HOP-62 NSCLC) [µM] | TGI (NCI-H460 lung) [µM] | TGI (A549 NSCLC) [µM] | TGI (SNB-75 CNS) [µM] | TGI (COLO 205 colon) [µM] | TGI (UO-31 renal) [µM] | TGI (HCC-2998 colon) [µM] | TGI (UACC-257 melanoma) [µM] | TGI (HT29 colon) [µM] | TGI (T-47D breast) [µM] | TGI (RXF 393 renal) [µM] | TGI (MCF7 breast) [µM] | TGI (CAKI-1 renal) [µM] | TGI (MALME-3M melanoma) [µM]
1 | CC1(C)OCC2(CO1)CSCCCSCC1(COC(C)(C)OC1)CSCCCSC2 | > 100 | > 100 | > 100 | > 100 | > 100 | > 100 | > 100 | > 100 | > 100 | > 100 | > 100 | > 100 | > 100 | > 100 | > 100 | – | – | – | –
2 | NCCC(=O)N[C@H](Cc1cc(O)c(O)c(SCC(NC(=O)CC[C@H](N)C(=O)O)C(=O)NCC(=O)O)c1)C(=O)O (some centres not stated) | > 50 | > 50 | > 50 | > 50 | > 50 | > 50 | > 50 | > 50 | > 50 | > 50 | > 50 | > 50 | > 50 | > 50 | – | > 50 | > 50 | > 50 | > 50
3 | CC1(c2cccc3c2C2(O)C=CC4(CCC32)OCCO4)OCCO1 (configuration not stated) | > 100 | > 100 | > 100 | > 100 | > 100 | > 100 | > 100 | > 100 | > 100 | > 100 | > 100 | > 100 | > 100 | > 100 | – | > 100 | – | > 100 | > 100
4 | O=S1(=O)NNC(=NCc2ccc(Cl)c(Cl)c2)c2ccccc21 | > 100 | – | > 100 | > 100 | > 100 | – | > 100 | > 100 | – | > 100 | > 100 | > 100 | > 100 | > 100 | – | > 100 | – | > 100 | > 100
5 | COc1ccc(N(C)CN(C)c2nc(N(C)C)nc(N(C)C)n2)cc1 | > 100 | > 100 | > 100 | > 100 | > 100 | > 100 | > 100 | > 100 | > 100 | > 100 | > 100 | – | > 100 | > 100 | – | – | – | > 100 | > 100
6 | CCC[C@H](O)[C@@H](CNc1cc(NC(C)=O)nc(NC(C)=O)n1)N(Cc1ccccc1)Cc1ccccc1 | 54.1 | 63.4 | 57 | > 100 | > 100 | 36.2 | > 100 | 72.1 | 34.8 | > 100 | 48.6 | > 100 | > 100 | – | – | – | 25.8 | 38.5 | > 100
7 | CC1C2=C(CC(C)(C)CC2=O)NC2=C1C(=O)CC(C)(C)C2 | – | > 100 | > 100 | > 100 | > 100 | – | > 100 | > 100 | > 100 | – | > 100 | > 100 | – | > 100 | – | – | > 100 | > 100 | –
8 | CNC(C)Cc1ccccc1O (configuration not stated) | > 100 | > 100 | > 100 | > 100 | > 100 | > 100 | > 100 | > 100 | > 100 | > 100 | > 100 | > 100 | > 100 | > 100 | – | > 100 | – | > 100 | > 100
9 | CCCCCCCC(=O)OC[C@@H](C[As](=O)(O)O)OC(=O)CCCCCCC | 22.6 | 28.1 | 23.4 | 22.4 | – | 32.9 | – | 19.3 | 29.5 | 34.3 | 17.1 | 29.2 | 35.6 | 28.1 | – | 19.3 | – | – | 28.5
10 | Cc1ccc(N/C(Sc2ccccc2)=C(/C(Cl)=C(Cl)Cl)[N+](=O)[O-])c(C)c1 | 30.8 | 99.2 | 62.2 | 32.3 | 23 | 59.7 | 32.7 | > 81.5 | – | 35.3 | – | 36 | 38.2 | 35.6 | – | – | 28 | 30.7 | 34
11 | COc1cc2cc[n+](C)c(Cc3ccccc3)c2cc1OC | > 100 | > 100 | > 100 | > 100 | > 100 | – | > 100 | > 100 | > 100 | > 100 | > 100 | – | > 100 | > 100 | – | > 100 | – | – | > 100
12 | C#CCSc1nc(N)c2ncn(C3OC(CO)C(O)C3O)c2n1 (configuration not stated) | > 100 | – | – | > 100 | – | > 100 | > 100 | > 100 | – | > 100 | > 100 | > 100 | > 100 | > 100 | – | > 100 | – | – | > 100
13 | Cc1nc(Cl)c2sc(=S)n(-c3ccc(F)cc3)c2n1 | 4.15 | 25.9 | 24 | 15.1 | 24.1 | 9.73 | 26.5 | 25.4 | 18.1 | 16.6 | 3.17 | 20.3 | 10.5 | 5.51 | – | 21.1 | 13.2 | 3.11 | 23.9
14 | CCN(CC)c1ccc2c(c1)OC(=O)C(c1nnc(-c3ccc([N+](=O)[O-])cc3)o1)C2 (configuration not stated) | > 100 | > 100 | > 100 | > 100 | > 100 | > 100 | > 100 | > 100 | > 100 | > 100 | > 100 | > 100 | > 100 | > 100 | – | > 100 | > 100 | > 100 | > 100
15 | CC(CN(C)C)C(=O)c1ccccc1C(=O)O (configuration not stated) | > 100 | > 100 | 51.3 | > 100 | > 100 | 85.8 | – | > 100 | – | 66.3 | > 100 | – | – | > 100 | > 100 | > 100 | > 100 | 83.9 | 83
16 | O=c1cc(CO)n(CCc2c[nH]c3ccccc23)cc1O | > 100 | > 100 | > 100 | > 100 | > 100 | > 100 | > 100 | > 100 | – | > 100 | > 100 | – | > 100 | > 100 | 80.5 | – | 59.6 | > 100 | 57.5
17 | CSc1ccccc1P(c1ccccc1SC)c1ccccc1SC | > 100 | > 100 | > 100 | > 100 | > 100 | > 100 | – | > 100 | – | – | > 100 | – | – | – | > 100 | – | > 100 | > 100 | > 100
18 | O=c1[nH]c(=O)n(C2CC(O)C(CO)O2)cc1OCCc1ccccc1 (configuration not stated) | > 100 | > 100 | > 100 | > 100 | > 100 | > 100 | – | > 100 | > 100 | > 100 | > 100 | – | > 100 | > 100 | > 100 | > 100 | > 100 | > 100 | > 100
19 | NC(=O)c1cc(-c2ccc(-n3ccnc3)cc2)n[nH]c1=O | > 100 | > 100 | > 100 | > 100 | > 100 | > 100 | > 100 | > 100 | > 100 | > 100 | > 100 | > 100 | > 100 | – | – | > 100 | > 100 | > 100 | > 100
20 | N=C(N)C1CN(CCc2cnc[nH]2)C(=O)NC1=O (configuration not stated) | > 100 | > 100 | > 100 | > 100 | > 100 | > 100 | > 100 | > 100 | > 100 | > 100 | > 100 | > 100 | > 100 | > 100 | – | > 100 | > 100 | > 100 | > 100
21 | COc1ccc(N)c(C(O)CCNC(C)=O)c1 (configuration not stated) | > 100 | > 100 | > 100 | > 100 | > 100 | – | > 100 | > 100 | > 100 | > 100 | > 100 | – | > 100 | > 100 | > 100 | > 100 | > 100 | > 100 | –
22 | Cc1cccc2[nH]c3cc(O)cc(O)c3c(=O)c12 | > 10 | > 10 | > 10 | > 10 | > 10 | > 10 | > 10 | > 10 | > 10 | > 10 | > 10 | – | > 10 | > 10 | > 10 | > 10 | – | > 10 | > 10
23 | O=C(O)c1c[nH]c2c(=O)[nH]cnc12 | > 100 | > 100 | > 100 | > 100 | > 100 | > 100 | – | > 100 | > 100 | > 100 | > 100 | > 100 | > 100 | > 100 | – | > 100 | – | > 100 | > 100
24 | COc1ccc(-c2cnoc2-c2ccc(OC)c(OC)c2)cc1OC | 12.6 | 5.41 | 1.78 | 9.01 | 36 | 20.5 | 19.8 | > 44.8 | 6.53 | 3.86 | 41.6 | – | > 100 | 11.1 | – | – | – | > 68.1 | –
25 | COc1ccc(-c2cc(-c3ccc(Cl)cc3)n(C3OC(CO)C(O)C(O)C3O)c(=S)c2C#N)cc1 (configuration not stated) | > 100 | > 100 | > 100 | > 100 | 82.2 | > 100 | > 100 | – | > 100 | > 100 | > 100 | > 100 | > 100 | > 100 | > 100 | – | – | – | –
26 | CCC(CC)C(=O)OC[n+]1ccc(-c2c(COC(=O)NC(C)C)c(COC(=O)NC(C)C)c3n2CCC3)cc1 | – | > 100 | – | > 100 | – | > 100 | – | > 100 | – | > 100 | > 100 | > 100 | > 100 | – | – | > 100 | > 100 | > 100 | –
27 | O=C1c2cccc3cccc(c23)C(=O)N1CCCNCCCCNCCCN1C(=O)c2cccc3cccc(c23)C1=O | 0.668 | 6.65 | 1.44 | 13.8 | 2.44 | 2.66 | – | 0.833 | 1.01 | 1.25 | 5.51 | 0.568 | 1.91 | 1.27 | 4.32 | 0.698 | – | 5.65 | 0.74
28 | O=[N+]([O-])c1ccc(N=Nc2c(O)ccc3cc(S(=O)(=O)O)ccc23)cc1 | > 100 | > 100 | > 100 | > 100 | > 100 | > 100 | – | > 100 | > 100 | > 100 | > 100 | – | > 100 | > 100 | > 100 | > 100 | – | > 100 | > 100
29 | O=C1NCN(c2ccccc2)C12CCN(CCc1ccc3[nH]c(=S)[nH]c3c1)CC2 | > 100 | > 100 | > 100 | > 100 | > 100 | > 100 | > 100 | > 100 | – | 30.7 | – | – | 15.6 | > 100 | 56.8 | 36.5 | 92.8 | > 100 | 30.8
